Test results published in patent US12240858B2 (ANBOGEN THERAPEUTICS, INC, priority 2021, dated 2025).
Converted amounts (≈) assume the structure as drawn. Where a name gives a salt, the structure may show the parent alone. Read-outs that look alike come from different tables or passages of the source.

Tests used:
[1] = Pharmacokinetics study, rat IV and PO; format: in vivo
[2] = Solubility 24 hrs in FaSSIF, FeSSIF, SGF, H2O; format: physicochemical; details: thermodynamic from solid
Description: In Table 3, “FaSSIF” stands for “Fasted state simulated intestinal fluid”; “FeSSIF” stands for “Fed state simulated intestinal fluid”; “SGF” stands for “Simulated gastric fluid”.

[3] = Weight loss before melting (TGA) of solid forms; format: physicochemical
[4] = Stability of solid forms under stress conditions; format: physicochemical
[5] = 20 mg/kg, listed as ABT-101 S0*
[6] = FeSSIF (fed state simulated intestinal fluid), fessif
[7] = SGF (simulated gastric fluid), simulated gastric fluid, SGF

Row | Compound | increased Cmax, AUC and F (%) compared to amorphous form (ABT-101 S0) [1] | Cmax ([1]; 20 mg/kg) | F (%) ([1]; 20 mg/kg) | Cmax [1, 5] | F (%) [1, 5] | Tmax [1, 5] | half-life ([1]; rat, in vivo, po, 20 mg/kg) | Tmax ([1]; rat, in vivo, po, 20 mg/kg, read-out: Tmax) | solubility at 24 h ([2]; FaSSIF (fasted state simulated intestinal fluid), fassif) | solubility at 24 h [2, 6] | solubility at 24 h [2, 7] | solubility at 24 h ([2]; water, H2O) | Weight loss before melting (%) (TGA) [3] | Stability ([4]; 25° C./60% RH, 1 week) | Stability ([4]; 40° C./75% RH, 1 week) | Stability ([4]; 80° C., 24 hrs)
1 | CN(C)C/C=C/C(=O)Nc1cccc(-c2c(-c3ccccc3)oc3ncnc(N[C@H](CO)c4ccccc4)c23)c1 [ABT-101 S0, (S, E)-4-(dimethylamino)-N-(3-(4-(2-hydroxy-1-phenylethylamino)-6-phenylfuro[2,3-d]pyrimidin-5-yl)phenyl)but-2-enamide] | 1.9˜3 times | 136 ng/mL | 19% | 508 ng/mL | 42% | 3.3 h | 4.7 h | 4 h |  |  |  |  |  |  |  | 
2 | CN(C)C/C=C/C(=O)Nc1cccc(-c2c(-c3ccccc3)oc3ncnc(N[C@H](CO)c4ccccc4)c23)c1 [Free Base, (S, E)-4-(dimethylamino)-N-(3-(4-(2-hydroxy-1-phenylethylamino)-6-phenylfuro[2,3-d]pyrimidin-5-yl)phenyl)but-2-enamide] |  |  |  |  |  |  |  |  | 320 µg/mL (≈ 600 µM) | 410 µg/mL (≈ 768 µM) | 9100 µg/mL (≈ 17100 µM) | 20 µg/mL (≈ 37.5 µM) | 0.6 wt % | Stable | Stable | Stable
3 | CN(C)C/C=C/C(=O)Nc1cccc(-c2c(-c3ccccc3)oc3ncnc(NC(CO)c4ccccc4)c23)c1 (stereo not drawn) [Glycollate] |  |  |  |  |  |  |  |  |  | > 11300 µg/mL | > 10900 µg/mL |  | 0.7 wt % | Stable | Unstable | Stable

Continued, values first:

Row | increased Cmax, AUC and F (%) compared to amorphous form (ABT-101 S0) [1] | Cmax ([1]; 20 mg/kg) | F (%) ([1]; 20 mg/kg) | Cmax [1, 5] | F (%) [1, 5] | Tmax [1, 5] | half-life ([1]; rat, in vivo, po, 20 mg/kg) | Tmax ([1]; rat, in vivo, po, 20 mg/kg, read-out: Tmax) | solubility at 24 h ([2]; FaSSIF (fasted state simulated intestinal fluid), fassif) | solubility at 24 h [2, 6] | solubility at 24 h [2, 7] | solubility at 24 h ([2]; water, H2O) | Weight loss before melting (%) (TGA) [3] | Stability ([4]; 25° C./60% RH, 1 week) | Stability ([4]; 40° C./75% RH, 1 week) | Stability ([4]; 80° C., 24 hrs) | Compound
4 |  |  |  |  |  |  |  |  |  |  |  |  | 3.6 wt % | Stable | Stable | Stable | CN(C)C/C=C/C(=O)Nc1cccc(-c2c(-c3ccccc3)oc3ncnc(NC(CO)c4ccccc4)c23)c1 (stereo not drawn) [Hydrochloride]
5 |  |  |  |  |  |  |  |  |  |  |  |  | 0.5 wt % | Stable | Unstable | Stable | CN(C)C/C=C/C(=O)Nc1cccc(-c2c(-c3ccccc3)oc3ncnc(NC(CO)c4ccccc4)c23)c1 (stereo not drawn) [Succinate]
